Test results as given in PubChem BioAssay (NCI).
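48-hour exposure; five concentrations; linearly interpolated endpoints. At the GI50, growth is halved. The concentration for full growth arrest is given as TGI.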

Experiments:
Experiment in all cases: NCI-60 cell line screen, 48 h
MALME-3M melanoma = test system: MALME-3M melanoma
HCT-116 colon = test system: HCT-116 colon
UACC-62 melanoma = test system: UACC-62 melanoma
T-47D breast = test system: T-47D breast
KM12 colon = test system: KM12 colon
RPMI-8226 leukemia = test system: RPMI-8226 leukemia
NCI-H23 lung = test system: NCI-H23 lung
NCI/ADR-RES ovarian = test system: NCI/ADR-RES ovarian
SF-539 CNS = test system: SF-539 CNS
SK-MEL-2 melanoma = test system: SK-MEL-2 melanoma
HT29 colon = test system: HT29 colon
HCC-2998 colon = test system: HCC-2998 colon
M14 melanoma = test system: M14 melanoma
SK-MEL-5 melanoma = test system: SK-MEL-5 melanoma
U251 CNS = test system: U251 CNS
SR leukemia = test system: SR leukemia
DU-145 prostate = test system: DU-145 prostate
SF-268 CNS = test system: SF-268 CNS
LOX IMVI melanoma = test system: LOX IMVI melanoma
SK-OV-3 ovarian = test system: SK-OV-3 ovarian
TK-10 renal = test system: TK-10 renal
UO-31 renal = test system: UO-31 renal
COLO 205 colon = test system: COLO 205 colon
RXF 393 renal = test system: RXF 393 renal
A549 NSCLC = test system: A549 NSCLC
OVCAR-8 ovarian = test system: OVCAR-8 ovarian
SW-620 colon = test system: SW-620 colon
SK-MEL-28 melanoma = test system: SK-MEL-28 melanoma
HCT-15 colon = test system: HCT-15 colon
NCI-H522 lung = test system: NCI-H522 lung
CCRF-CEM leukemia = test system: CCRF-CEM leukemia
MOLT-4 leukemia = test system: MOLT-4 leukemia
SF-295 CNS = test system: SF-295 CNS
MCF7 breast = test system: MCF7 breast
SN12C renal = test system: SN12C renal
SNB-75 CNS = test system: SNB-75 CNS
BT-549 breast = test system: BT-549 breast
ACHN renal = test system: ACHN renal
UACC-257 melanoma = test system: UACC-257 melanoma
SNB-19 CNS = test system: SNB-19 CNS
HOP-62 NSCLC = test system: HOP-62 NSCLC
MDA-MB-435 = test system: MDA-MB-435
A498 renal = test system: A498 renal
NCI-H226 lung = test system: NCI-H226 lung
HOP-92 NSCLC = test system: HOP-92 NSCLC
OVCAR-5 ovarian = test system: OVCAR-5 ovarian
CAKI-1 renal = test system: CAKI-1 renal
OVCAR-4 ovarian = test system: OVCAR-4 ovarian
786-0 renal = test system: 786-0 renal
EKVX NSCLC = test system: EKVX NSCLC
HL-60(TB) leukemia = test system: HL-60(TB) leukemia
OVCAR-3 ovarian = test system: OVCAR-3 ovarian
HS 578T breast = test system: HS 578T breast
PC-3 prostate = test system: PC-3 prostate
MDA-MB-231 breast = test system: MDA-MB-231 breast
NCI-H460 lung = test system: NCI-H460 lung
IGROV1 ovarian = test system: IGROV1 ovarian
K-562 leukemia = test system: K-562 leukemia

C1CCC(C(CC2CCCCN2)C2CCCCC2)CC1 (stereo unspecified)
GI50 (MALME-3M melanoma): 1.92 µM
TGI (MALME-3M melanoma): 3.69 µM
GI50 (HCT-116 colon): 1.68 µM
TGI (HCT-116 colon): 3.14 µM
GI50 (UACC-62 melanoma): 1.53 µM
TGI (UACC-62 melanoma): 2.96 µM
GI50 (T-47D breast): 1.44 µM
TGI (T-47D breast): 2.94 µM
GI50 (KM12 colon): 1.87 µM
TGI (KM12 colon): 3.42 µM
GI50 (RPMI-8226 leukemia): 2.17 µM
TGI (RPMI-8226 leukemia): 5.56 µM
GI50 (NCI-H23 lung): 1.72 µM
TGI (NCI-H23 lung): 3.49 µM
GI50 (NCI/ADR-RES ovarian): 1.88 µM
TGI (NCI/ADR-RES ovarian): 3.81 µM
GI50 (SF-539 CNS): 1.82 µM
TGI (SF-539 CNS): 3.39 µM
GI50 (SK-MEL-2 melanoma): 2.03 µM
TGI (SK-MEL-2 melanoma): 3.69 µM
GI50 (HT29 colon): 1.55 µM
TGI (HT29 colon): 3.06 µM
GI50 (HCC-2998 colon): 1.41 µM
TGI (HCC-2998 colon): 2.96 µM
GI50 (M14 melanoma): 1.76 µM
TGI (M14 melanoma): 3.34 µM
GI50 (SK-MEL-5 melanoma): 1.55 µM
TGI (SK-MEL-5 melanoma): 2.91 µM
GI50 (U251 CNS): 1.59 µM
TGI (U251 CNS): 3.02 µM
GI50 (SR leukemia): 2.74 µM
TGI (SR leukemia): 6.67 µM
GI50 (DU-145 prostate): 1.8 µM
TGI (DU-145 prostate): 3.21 µM
GI50 (SF-268 CNS): 1.77 µM
TGI (SF-268 CNS): 3.23 µM
GI50 (LOX IMVI melanoma): 1.57 µM
TGI (LOX IMVI melanoma): 3.21 µM
GI50 (SK-OV-3 ovarian): 1.54 µM
TGI (SK-OV-3 ovarian): 2.88 µM
GI50 (TK-10 renal): 1.63 µM
TGI (TK-10 renal): 3.09 µM
GI50 (UO-31 renal): 1.33 µM
TGI (UO-31 renal): 2.65 µM
GI50 (COLO 205 colon): 1.42 µM
TGI (COLO 205 colon): 2.79 µM
GI50 (RXF 393 renal): 1.42 µM
TGI (RXF 393 renal): 2.78 µM
GI50 (A549 NSCLC): 1.72 µM
TGI (A549 NSCLC): 3.32 µM
GI50 (OVCAR-8 ovarian): 1.77 µM
TGI (OVCAR-8 ovarian): 3.53 µM
GI50 (SW-620 colon): 1.77 µM
TGI (SW-620 colon): 3.4 µM
GI50 (SK-MEL-28 melanoma): 1.88 µM
TGI (SK-MEL-28 melanoma): 3.3 µM
GI50 (HCT-15 colon): 1.81 µM
TGI (HCT-15 colon): 3.48 µM
GI50 (NCI-H522 lung): 1.6 µM
TGI (NCI-H522 lung): 3.16 µM
GI50 (CCRF-CEM leukemia): 1.97 µM
TGI (CCRF-CEM leukemia): 4.82 µM
GI50 (MOLT-4 leukemia): 2.45 µM
TGI (MOLT-4 leukemia): 4.98 µM
GI50 (SF-295 CNS): 1.73 µM
TGI (SF-295 CNS): 3.21 µM
GI50 (MCF7 breast): 1.65 µM
TGI (MCF7 breast): 3.14 µM
GI50 (SN12C renal): 1.51 µM
TGI (SN12C renal): 2.97 µM
GI50 (SNB-75 CNS): 1.77 µM
TGI (SNB-75 CNS): 3.43 µM
GI50 (BT-549 breast): 1.93 µM
TGI (BT-549 breast): 3.51 µM
GI50 (ACHN renal): 1.83 µM
TGI (ACHN renal): 3.32 µM
GI50 (UACC-257 melanoma): 1.71 µM
TGI (UACC-257 melanoma): 3.53 µM
GI50 (SNB-19 CNS): 1.78 µM
TGI (SNB-19 CNS): 3.51 µM
GI50 (HOP-62 NSCLC): 1.35 µM
TGI (HOP-62 NSCLC): 2.64 µM
GI50 (MDA-MB-435): 1.59 µM
TGI (MDA-MB-435): 3.07 µM
GI50 (A498 renal): 1.36 µM
TGI (A498 renal): 2.67 µM
GI50 (NCI-H226 lung): 1.64 µM
TGI (NCI-H226 lung): 3.19 µM
GI50 (HOP-92 NSCLC): 0.99 µM
TGI (HOP-92 NSCLC): 2.36 µM
GI50 (OVCAR-5 ovarian): 1.7 µM
TGI (OVCAR-5 ovarian): 3.22 µM
GI50 (CAKI-1 renal): 1.55 µM
TGI (CAKI-1 renal): 3.06 µM
GI50 (OVCAR-4 ovarian): 1.65 µM
TGI (OVCAR-4 ovarian): 3.04 µM
GI50 (786-0 renal): 1.64 µM
TGI (786-0 renal): 3.16 µM
GI50 (EKVX NSCLC): 1.62 µM
TGI (EKVX NSCLC): 3.28 µM
GI50 (HL-60(TB) leukemia): 2.37 µM
TGI (HL-60(TB) leukemia): 4.38 µM
GI50 (OVCAR-3 ovarian): 1.82 µM
TGI (OVCAR-3 ovarian): 3.26 µM
GI50 (HS 578T breast): 2.15 µM
TGI (HS 578T breast): 5.55 µM
GI50 (PC-3 prostate): 1.5 µM
TGI (PC-3 prostate): 2.95 µM
GI50 (MDA-MB-231 breast): 1.25 µM
TGI (MDA-MB-231 breast): 2.6 µM
GI50 (NCI-H460 lung): 1.84 µM
TGI (NCI-H460 lung): 3.62 µM
GI50 (IGROV1 ovarian): 1.87 µM
TGI (IGROV1 ovarian): 3.45 µM
GI50 (K-562 leukemia): 2.45 µM
TGI (K-562 leukemia): 5.11 µM
